Experimental data taken from the NIST ThermoML archive (doi:10.1016/j.jct.2014.04.016).
Several values for one entry are separate records, joined by “and”; a condition that tells them apart may be missing. Equal entries are not always repeated.

Experiment: xn = mol fraction of the nth substance listed
Conditions: 100 kPa; for electrical conductivity: Alternating current cell with electrodes; for viscosity: Concentric cylinders viscometry; for mass density: Vibrating tube method

CCCCCCCCOS(=O)(=O)[O-].CCn1cc[n+](C)c1 [1-ethyl-3-methylimidazolium octyl sulfate] + O
Conditions | electrical conductivity | mass density | viscosity
278.1 K, Glass, x1 = 0.1197 | – | – | 591.8 mPa·s
278.1 K, Glass, x1 = 0.3555 | 0.188 S/m | – | 2561 mPa·s and 2061 mPa·s
278.1 K, Liquid, x1 = 0.0401 | 1.32 S/m and 1.31 S/m | – | –
278.1 K, Liquid, x1 = 0.0586 | 1.24 S/m | – | –
278.1 K, Liquid, x1 = 0.1197 | – | 1079 kg/m3 | –
278.1 K, Liquid, x1 = 0.1402 | – | 1080.9 kg/m3 | –
278.1 K, Liquid, x1 = 0.3555 | – | 1099.7 kg/m3 and 1099.8 kg/m3 | –
278.1 K, Liquid, x1 = 0.4108 | 0.144 S/m | 1101.5 kg/m3 | 394.6 mPa·s
278.1 K, Liquid, x1 = 0.4688 | 0.097 S/m | – | –
278.1 K, Liquid, x1 = 0.5001 | 0.089 S/m | – | –
278.6 K, Glass, x1 = 0.3555 | – | – | 1160 mPa·s
278.6 K, Liquid, x1 = 0.3555 | – | 1099.4 kg/m3 | –
279.1 K, Glass, x1 = 0.3555 | 0.198 S/m | – | 633.2 mPa·s
279.1 K, Liquid, x1 = 0.0803 | 1.1 S/m | – | –
279.1 K, Liquid, x1 = 0.1197 | 0.866 S/m | – | –
279.1 K, Liquid, x1 = 0.3555 | – | 1098.8 kg/m3 | –
280.1 K, Glass, x1 = 0.1402 | 0.788 S/m | – | –
280.1 K, Liquid, x1 = 0.3555 | 0.206 S/m and 0.205 S/m | 1098.3 kg/m3 | 307.6 mPa·s
280.1 K, Liquid, x1 = 0.4688 | 0.109 S/m | – | –
280.6 K, Liquid, x1 = 0.3555 | – | 1097.9 kg/m3 | 297.5 mPa·s
281.1 K, Glass, x1 = 0.1402 | 0.815 S/m and 0.816 S/m | – | –
281.1 K, Glass, x1 = 0.1605 | 0.737 S/m | – | –
281.1 K, Liquid, x1 = 0.0803 | 1.22 S/m | – | –
281.1 K, Liquid, x1 = 0.1197 | 0.927 S/m | – | –
281.1 K, Liquid, x1 = 0.3555 | 0.215 S/m and 0.214 S/m | 1097.6 kg/m3 | 287.4 mPa·s
281.1 K, Liquid, x1 = 0.4108 | 0.168 S/m | – | –
282.1 K, Glass, x1 = 0.1402 | 0.848 S/m and 0.847 S/m | – | –
282.1 K, Glass, x1 = 0.1605 | 0.766 S/m | – | –
282.1 K, Glass, x1 = 0.3076 | – | – | 12190 mPa·s
282.1 K, Liquid, x1 = 0.3076 | – | 1094.6 kg/m3 | –
282.1 K, Liquid, x1 = 0.3555 | – | 1096.9 kg/m3 | 268.8 mPa·s
282.6 K, Glass, x1 = 0.3076 | – | – | 7608 mPa·s
282.6 K, Liquid, x1 = 0.3076 | – | 1094.3 kg/m3 | –
283.1 K, Glass, x1 = 0.1402 | 0.873 S/m and 0.874 S/m | – | 11410 mPa·s
283.1 K, Glass, x1 = 0.1605 | 0.793 S/m and 0.791 S/m | – | –
283.1 K, Glass, x1 = 0.2119 | 0.566 S/m and 0.563 S/m | – | –
283.1 K, Glass, x1 = 0.2632 | 0.393 S/m | – | –
283.1 K, Glass, x1 = 0.3076 | – | – | 2873 mPa·s
283.1 K, Liquid, x1 = 0.0401 | 1.48 S/m | – | –
283.1 K, Liquid, x1 = 0.0586 | 1.46 S/m and 1.45 S/m | – | –
283.1 K, Liquid, x1 = 0.0803 | 1.29 S/m | – | –
283.1 K, Liquid, x1 = 0.1197 | 0.987 S/m | 1075.7 kg/m3 | 105.5 mPa·s
283.1 K, Liquid, x1 = 0.1402 | – | 1078.9 kg/m3 | –
283.1 K, Liquid, x1 = 0.3076 | – | 1094.1 kg/m3 | –
283.1 K, Liquid, x1 = 0.3555 | 0.234 S/m and 0.236 S/m | 1096.1 kg/m3 and 1096.2 kg/m3 | 251.8 mPa·s and 251.7 mPa·s
283.1 K, Liquid, x1 = 0.4108 | 0.189 S/m | 1098 kg/m3 | 282.2 mPa·s
283.1 K, Liquid, x1 = 0.4688 | 0.128 S/m and 0.124 S/m | – | –
283.1 K, Liquid, x1 = 0.5001 | 0.117 S/m | – | –
283.6 K, Glass, x1 = 0.3076 | – | – | 1129 mPa·s
283.6 K, Liquid, x1 = 0.3076 | – | 1093.8 kg/m3 | –
284.1 K, Glass, x1 = 0.1605 | 0.819 S/m | – | –
284.1 K, Glass, x1 = 0.2632 | 0.409 S/m | – | –
284.1 K, Glass, x1 = 0.3076 | 0.335 S/m | – | 560.6 mPa·s
284.1 K, Liquid, x1 = 0.1402 | 0.908 S/m and 0.907 S/m | – | –
284.1 K, Liquid, x1 = 0.3076 | – | 1093.6 kg/m3 | –
285.1 K, Glass, x1 = 0.1402 | – | – | 6220 mPa·s
285.1 K, Glass, x1 = 0.1605 | 0.847 S/m and 0.848 S/m | – | –
285.1 K, Glass, x1 = 0.2632 | 0.431 S/m | – | –
285.1 K, Glass, x1 = 0.3076 | 0.349 S/m | – | –
285.1 K, Liquid, x1 = 0.0803 | 1.37 S/m | – | –
285.1 K, Liquid, x1 = 0.1197 | 1.06 S/m | – | –
285.1 K, Liquid, x1 = 0.1402 | 0.934 S/m and 0.936 S/m | 1077.9 kg/m3 | –
285.1 K, Liquid, x1 = 0.3076 | – | 1092.7 kg/m3 | 191.9 mPa·s
285.1 K, Liquid, x1 = 0.3555 | 0.258 S/m and 0.257 S/m | – | –
285.1 K, Liquid, x1 = 0.4108 | 0.209 S/m | – | –
285.1 K, Liquid, x1 = 0.4688 | 0.142 S/m | – | –
285.6 K, Liquid, x1 = 0.3076 | – | 1092.4 kg/m3 | 186 mPa·s
286.1 K, Glass, x1 = 0.1402 | – | – | 4375 mPa·s
286.1 K, Glass, x1 = 0.1605 | 0.875 S/m and 0.876 S/m | – | –
286.1 K, Glass, x1 = 0.2632 | 0.449 S/m and 0.445 S/m | – | –
286.1 K, Glass, x1 = 0.3076 | 0.363 S/m and 0.362 S/m | – | –
286.1 K, Liquid, x1 = 0.1402 | 0.965 S/m and 0.967 S/m | 1077.3 kg/m3 | –
286.1 K, Liquid, x1 = 0.3076 | – | 1092 kg/m3 | 180.2 mPa·s
286.6 K, Glass, x1 = 0.2632 | 0.455 S/m | – | –
286.6 K, Liquid, x1 = 0.2632 | – | 1088.8 kg/m3 | –
286.6 K, Liquid, x1 = 0.3076 | – | 1091.7 kg/m3 | 174.6 mPa·s
287.1 K, Glass, x1 = 0.1402 | – | – | 2587 mPa·s
287.1 K, Glass, x1 = 0.1605 | 0.904 S/m | – | –
287.1 K, Glass, x1 = 0.1766 | 0.817 S/m | – | –
287.1 K, Glass, x1 = 0.2632 | 0.463 S/m | – | 14710 mPa·s
287.1 K, Liquid, x1 = 0.1197 | 1.13 S/m | – | –
287.1 K, Liquid, x1 = 0.1402 | 0.996 S/m and 0.997 S/m | – | –
287.1 K, Liquid, x1 = 0.1605 | 0.906 S/m | – | –
